The target of data set [1] is human D2 receptor (Homo sapiens (Human), UniProt P14416). Kind of data set: Test 1: binding activity for human D2 receptor ([3H]Spiperone, CHO cell membrane fraction). To be noted: human D2 receptor, [3H]Spiperone. In short, it runs like this:
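CHO-cell membranes with [3H]ketanserin (5-HT2A) or [3H]spiperone (D2) were incubated with compound for 60 min at room temperature, then filtered, and bound radioactivity was counted by scintillation. Ki = IC50/(1+S/Kd), with ligand Kd from saturation binding on the same membranes.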

For data set [2], the target named is T1, human 5-HT1A receptor (Homo sapiens (Human), UniProt P08908). Briefly: Test 2: agonist activity for human 5-HT1A receptor ([35S]GTPγS binding). Type of data set: biochemical. To be noted: for pEC50: [35S]GTPγS binding, concentration at which half the activity of Emax was obtained; for Emax at 10 µM: agonist activity in the presence of 10 μM of compound, relative to 100 μmol/L 5-HT. In short, it runs like this: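 Membranes from CHO cells expressing human 5-HT1A incubated with compound, GDP-containing buffer and [35S]GTPγS for 60 min at room temperature. Bound radioactivity collected by glass-fibre filtration and counted by liquid scintillation; agonist activity derived from a formula.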

The target in data set [3] is hERG channel (Homo sapiens (Human), UniProt Q12809). Briefly: Test 6-1: inhibitory activity for hERG channel (auto patch clamp, Qpatch). Type of data set: cell-based. The following applies: whole cell auto patch clamp, hERG-CHO cells; read-out: hERG inhibition IC50. In short, it runs like this: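 Whole-cell patch clamp on an automated system using CHO cells stably expressing human hERG (IKr); 15 s pulse interval. Four increasing compound concentrations applied cumulatively; mean peak tail current from last 3 stimulations per concentration used. IC50 from inhibition versus pre-compound current, fitted by Hill equation.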

Data set [4] deals with T1, human 5-HT1A receptor. Kind of data set: Test 1: binding activity for human 5-HT1A receptor ([3H]8-OH-DPAT, CHO cell membrane fraction). The procedure, abridged:
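Membranes incubated with [3H]8-OH-DPAT and compound for 60 min at room temperature, then filtered on polyethylenimine-coated glass-fibre plates and counted by liquid scintillation. IC50 from Hill analysis; Ki = IC50/(1+S/Kd), Kd from saturation binding on the same membranes.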

Data set [5] can be described thus: Test 4: metabolic stability test in human hepatic microsome. Type of data set: in vitro ADME. The following applies: 0.1 mg/mL microsome, 0.1 μmol/L compound, 37° C., 30 minutes. In short, it runs like this: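 Compound at 0.1 μmol/L incubated 30 min at 37° C with human liver microsomes (0.1 mg/mL) and NADPH (3.2 mmol/L) in 25 mmol/L phosphate buffer, pH 7.4. Residual compound measured by LC-MS; stability (mL/min/mg protein) = −LN(residual ratio)/30/0.1.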

pEC50, pIC50, pKi: −log10 of the molar value.

T1 sequence (P08908 whole entry): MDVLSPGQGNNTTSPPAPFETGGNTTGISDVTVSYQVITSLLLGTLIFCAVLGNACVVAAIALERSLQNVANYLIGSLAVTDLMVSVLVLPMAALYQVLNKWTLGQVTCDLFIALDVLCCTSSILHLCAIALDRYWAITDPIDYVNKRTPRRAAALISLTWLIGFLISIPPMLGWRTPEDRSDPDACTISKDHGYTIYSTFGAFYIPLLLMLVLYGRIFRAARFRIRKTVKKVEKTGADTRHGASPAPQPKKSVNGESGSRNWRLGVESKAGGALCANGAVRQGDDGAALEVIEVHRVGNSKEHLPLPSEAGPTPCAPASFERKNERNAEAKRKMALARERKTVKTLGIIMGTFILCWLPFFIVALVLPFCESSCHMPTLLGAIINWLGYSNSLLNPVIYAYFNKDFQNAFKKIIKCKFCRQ
Chain of hERG channel (Q12809 whole entry): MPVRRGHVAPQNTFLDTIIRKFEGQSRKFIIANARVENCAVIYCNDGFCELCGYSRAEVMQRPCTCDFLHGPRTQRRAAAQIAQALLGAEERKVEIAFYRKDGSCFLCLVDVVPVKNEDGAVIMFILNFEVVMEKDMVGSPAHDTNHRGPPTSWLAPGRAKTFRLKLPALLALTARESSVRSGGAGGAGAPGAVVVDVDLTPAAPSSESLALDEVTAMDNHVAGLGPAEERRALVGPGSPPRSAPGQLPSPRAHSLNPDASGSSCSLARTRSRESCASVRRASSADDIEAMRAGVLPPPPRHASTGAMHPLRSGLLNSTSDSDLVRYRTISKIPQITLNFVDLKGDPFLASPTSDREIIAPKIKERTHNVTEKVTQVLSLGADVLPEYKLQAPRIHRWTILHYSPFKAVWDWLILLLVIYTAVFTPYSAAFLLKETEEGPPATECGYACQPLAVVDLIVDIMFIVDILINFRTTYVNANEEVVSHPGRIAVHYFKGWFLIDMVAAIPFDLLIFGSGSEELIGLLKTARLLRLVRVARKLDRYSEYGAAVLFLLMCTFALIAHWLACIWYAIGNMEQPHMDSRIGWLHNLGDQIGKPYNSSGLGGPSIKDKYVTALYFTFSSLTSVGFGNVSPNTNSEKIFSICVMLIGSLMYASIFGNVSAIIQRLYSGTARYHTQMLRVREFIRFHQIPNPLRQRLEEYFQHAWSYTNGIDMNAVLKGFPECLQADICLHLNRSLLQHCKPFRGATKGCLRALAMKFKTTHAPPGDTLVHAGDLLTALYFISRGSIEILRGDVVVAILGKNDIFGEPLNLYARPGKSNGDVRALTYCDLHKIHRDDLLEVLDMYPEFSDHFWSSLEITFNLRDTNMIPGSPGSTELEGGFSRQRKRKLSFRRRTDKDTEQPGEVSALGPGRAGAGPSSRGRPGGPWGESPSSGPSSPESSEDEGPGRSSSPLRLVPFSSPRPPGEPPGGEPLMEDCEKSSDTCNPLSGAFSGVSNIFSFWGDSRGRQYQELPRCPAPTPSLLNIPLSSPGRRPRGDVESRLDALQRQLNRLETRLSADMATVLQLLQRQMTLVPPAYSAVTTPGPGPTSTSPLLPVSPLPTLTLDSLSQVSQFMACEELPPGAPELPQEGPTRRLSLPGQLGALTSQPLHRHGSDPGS
Chain of human D2 receptor (P14416 whole entry): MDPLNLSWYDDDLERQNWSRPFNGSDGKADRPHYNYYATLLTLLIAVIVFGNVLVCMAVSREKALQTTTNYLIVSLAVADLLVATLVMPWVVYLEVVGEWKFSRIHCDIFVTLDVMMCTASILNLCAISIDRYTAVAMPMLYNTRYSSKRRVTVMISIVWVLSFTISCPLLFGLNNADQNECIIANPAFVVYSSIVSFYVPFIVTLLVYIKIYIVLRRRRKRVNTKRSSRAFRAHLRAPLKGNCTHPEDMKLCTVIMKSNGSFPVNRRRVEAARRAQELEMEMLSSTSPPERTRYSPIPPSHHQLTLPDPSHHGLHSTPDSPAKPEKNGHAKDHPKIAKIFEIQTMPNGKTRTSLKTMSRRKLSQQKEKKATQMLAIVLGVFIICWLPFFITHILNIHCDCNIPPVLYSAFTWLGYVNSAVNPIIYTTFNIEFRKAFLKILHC

In turn, `O=C1c2cn(-c3ccccc3)nc2CCN1CCN1CCN(c2nsc3ccccc23)CC1` [Example 168] showed a pKi in data set [1] of 6.84. In addition, in data set [2], the pEC50 was 7.00 and the Emax at 10 µM was determined as 52%. Also, in data set [3], the negative logarithm of the IC50 (pIC50) is over 6.52. The pKi in data set [4] was 8.99. Further, the “Metabolic stability in human hepatic microsome” value (“Metabolic stability” below) in data set [5] was determined as 0.924 mL/min/mg protein.

`Cc1ncc2c(n1)CCC(CCN1CCC(c3noc4ccccc34)CC1)C2=O` (stereo not drawn) [Example 150]: in data set [1], the pKi was 6.73. Further, in data set [2], the pEC50 is 7.43 and the Emax at 10 µM stood at 54%. For the same molecule, the pIC50 in data set [3] was 5.92. In data set [4], this molecule showed a pKi of 8.27. For the same molecule, in data set [5], the “Metabolic stability” value was under 0.05 mL/min/mg protein.

In data set [1], `Cc1n[nH]c2c1C(=O)N(CCN1CCC(c3noc4ccccc34)CC1)CC2` [Example 99, 5-{2-[4-(1,2-Benzoisoxazol-3-yl)piperidin-1-yl]ethyl}-3-methyl-1,5,6,7-tetrahydro-4H-pyrazolo[4,3-c]pyridin-4-one] gave a pKi of 6.55. Also, in data set [2], the pEC50 was 6.73 and the Emax at 10 µM came to 40%. The negative-log IC50 (pIC50) in data set [3] is 5.54. For the same molecule, in data set [4], the pKi was 7.67. Also, the “Metabolic stability” value in data set [5] is under 0.01 mL/min/mg protein.

In turn, `CCc1cc2c(cn1)C(=O)N(CCN1CCN(c3nsc4ccccc34)CC1)CC2` [Example 104, 2-{2-[4-(1,2-Benzoisothiazol-3-yl)piperazin-1-yl]ethyl}-6-ethyl-3,4-dihydro-2,7-naphthyridin-1(2H)-one] gave a pKi in data set [1] of 7.03. In data set [2], the negative logarithm of the EC50 (pEC50) was 8.70 and the Emax at 10 µM came to 64%. In data set [3], the pIC50 was 6.15. Moreover, the pKi in data set [4] was 9.39. In addition, the “Metabolic stability” value in data set [5] stood at 0.358 mL/min/mg protein.

In data set [1], `COc1cc2c(cn1)CCN(CCN1CCN(c3nsc4ccccc34)CC1)C2=O` [Example 19] had a pKi of 6.16. In addition, in data set [2], the pEC50 is 8.17 and the maximal response (Emax) at 10 µM was 68%. The pIC50 in data set [3] was 5.28. This molecule gave a negative-log Ki (pKi) in data set [4] of 9.12. Moreover, in data set [5], the “Metabolic stability” value turned out to be 0.378 mL/min/mg protein.

Take `CCn1cc2c(n1)CCN(CCN1CCN(c3nsc4ccccc34)CC1)C2=O` [Example 163]: the pKi in data set [1] is 6.12. In data set [2], the pEC50 was 7.96 and the Emax at 10 µM was found to be 67%. Also, in data set [3], the negative-log IC50 (pIC50) was 5.85. Further, the pKi in data set [4] was 8.62. The “Metabolic stability” value in data set [5] worked out at 0.118 mL/min/mg protein.

For `Cn1cc2c(n1)C(=O)N(CCN1CCN(c3nsc4ccccc34)CC1)CC2` [Example 50], the pKi in data set [1] was 6.08. For the same molecule, in data set [2], the pEC50 is 8.29 and the Emax at 10 µM was 59%. Moreover, the pIC50 in data set [3] is 5.07. Further, in data set [4], the negative logarithm of the Ki (pKi) was 8.90. For the same molecule, the “Metabolic stability” value in data set [5] is on record as 0.038 mL/min/mg protein.

Turning to `Cn1cnc2c1C(=O)N(CCN1CCC(c3noc4ccccc34)CC1)CC2` [Example 133], the negative logarithm of the Ki (pKi) in data set [1] is 6.04. For the same molecule, in data set [2], the pEC50 is 6.54 and the Emax at 10 µM was determined as 26%. The pIC50 in data set [3] was 5.33. In data set [4], this molecule showed a pKi of 6.49. Further, in data set [5], the “Metabolic stability” value is under 0.05 mL/min/mg protein.

In the case of `Cn1ncc2c1CCC(CCN1CCN(c3nsc4ccccc34)CC1)C2=O` (stereo not drawn) [Example 29], the pKi is 6.84 in data set [1] and 9.17 in data set [4]. The molecule also gave a negative logarithm of the EC50 (pEC50) in data set [2] of 7.19. The Emax at 10 µM in data set [2] worked out at 42%. Also, the pIC50 in data set [3] is 5.64. For the same molecule, the “Metabolic stability” value in data set [5] is recorded as 0.063 mL/min/mg protein.

`Cc1ncc2c(n1)CCN(CCN1CCN(c3nsc4ccccc34)CC1)C2=O` [Example 90] had a pKi in data set [1] of 5.97. In data set [2], the pEC50 is 7.24 and the Emax at 10 µM stood at 65%. Moreover, the negative logarithm of the IC50 (pIC50) in data set [3] is under 5.00. In data set [4], this molecule had a pKi of 8.17. Besides, in data set [5], the “Metabolic stability” value was 0.070 mL/min/mg protein.

The values are drawn from US10745401B2, “Condensed lactam derivative” (Sumitomo Dainippon Pharma Co., Ltd., priority 2018, dated 2020).
